Test results as given in the CheMixHub ionic liquid set.

Test: xn = mol fraction of the nth substance listed

CCCC[n+]1ccn(C)c1.O=S(=O)([O-])C(F)(F)F + NCCO + O
viscosity [mPa·s], 101 kPa
Conditions	293.15 K	298.15 K	303.15 K	308.15 K	313.15 K	318.15 K	323.15 K	328.15 K	333.15 K
x2 = 0.1349, x3 = 0.8555	4.3	3.656	3.152	2.758	2.447	2.198	2.004	1.847	1.718
x2 = 0.1564, x3 = 0.8171	–	5.025	4.267	3.67	3.186	2.805	2.511	2.269	2.073
x2 = 0.2358, x3 = 0.6935	11.54	9.48	7.87	6.611	5.618	4.823	4.182	3.665	3.242

CCCC[n+]1ccn(C)c1.O=S(=O)([O-])C(F)(F)F + Nc1ccccc1
100 kPa
Conditions	viscosity [mPa·s]
288.15 K, x2 = 0	132.7
293.15 K, x2 = 0.3002	57.6
298.15 K, x2 = 0.1995	56.1
303.15 K, x2 = 0.3002	37.3
318.15 K, x2 = 0.3996	17.67
323.15 K, x2 = 0.3002	18.28
323.15 K, x2 = 0.8999	3.12
328.15 K, x2 = 0.8999	2.76
333.15 K, x2 = 0.1995	16.23

CCCCCCCCCCCCCCCC[n+]1ccccc1.O=C([O-])c1ccccc1O + O
electrical conductivity [S/m], 101 kPa
Conditions	293.15 K	298.15 K	303.15 K	308.15 K	313.15 K
x1 = 7.2e-07	0.00046	0.000513	0.000569	0.000627	0.000668
x1 = 1.44e-06	0.000708	0.000794	0.000883	0.000973	0.00122
x1 = 1.98e-06	0.000945	0.00105	0.00117	0.00129	–
x1 = 2.34e-06	0.00114	0.00128	0.00144	0.00159	0.00177
x1 = 2.88e-06	0.00129	0.00148	0.00168	0.00186	–
x1 = 3.24e-06	–	–	–	–	0.0023
x1 = 3.42e-06	0.00142	0.00163	0.00186	0.0021	–
x1 = 3.96e-06	0.00156	0.00178	0.00202	0.0023	0.00268
x1 = 4.32e-06	0.00167	0.00191	0.00217	0.00247	–
x1 = 4.69e-06	–	–	0.00232	0.00263	0.003
x1 = 4.87e-06	0.00181	0.00205	–	–	–
x1 = 5.23e-06	0.00187	0.00217	0.00247	0.0028	–
x1 = 5.41e-06	–	–	–	–	0.00324
x1 = 5.59e-06	0.00204	0.00231	0.00261	0.00294	–
x1 = 5.95e-06	0.00212	0.00242	0.00273	0.00309	0.00348
x1 = 6.31e-06	0.00224	0.00254	0.00285	0.00321	–
x1 = 6.49e-06	0.00231	0.00263	0.00296	0.00333	0.00375
x1 = 6.85e-06	0.00243	0.00274	0.00307	0.00345	–
x1 = 7.03e-06	–	–	–	–	0.00396
x1 = 7.21e-06	0.00251	0.00283	0.00319	0.00358	–
x1 = 7.39e-06	–	–	–	–	0.00412
x1 = 7.75e-06	–	–	–	–	0.00431
x1 = 8.11e-06	–	–	–	–	0.00447
x1 = 8.65e-06	–	–	–	–	0.00464

CCCCCCCC[n+]1ccn(C)c1.F[P-](F)(F)(F)(F)F + O
101 kPa, x2 = 0.212
Conditions	electrical conductivity [S/m]	viscosity [mPa·s]
293.15 K	–	500
295.15 K	0.12	–

CCCC[n+]1ccn(C)c1.[Cl-] + O
Conditions	electrical conductivity [S/m]	viscosity [mPa·s]
278.15 K, 100 kPa, x1 = 9.568e-05	–	1.532
278.15 K, 100 kPa, x1 = 0.000202	–	1.539
278.15 K, 100 kPa, x1 = 0.0003808	–	1.545
278.15 K, 100 kPa, x1 = 0.0005628	–	1.555
278.15 K, 100 kPa, x1 = 0.0007322	–	1.561
278.15 K, 100 kPa, x1 = 0.0009239	–	1.57
278.15 K, 100 kPa, x1 = 0.001099	–	1.576
278.15 K, 100 kPa, x1 = 0.001363	–	1.587
278.15 K, 100 kPa, x1 = 0.001909	–	1.608
283.15 K, 100 kPa, x1 = 9.568e-05	–	1.314
283.15 K, 100 kPa, x1 = 0.000202	–	1.318
283.15 K, 100 kPa, x1 = 0.0003808	–	1.325
283.15 K, 100 kPa, x1 = 0.0005628	–	1.332
283.15 K, 100 kPa, x1 = 0.0007322	–	1.339
283.15 K, 100 kPa, x1 = 0.0009239	–	1.348
283.15 K, 100 kPa, x1 = 0.001099	–	1.355
283.15 K, 100 kPa, x1 = 0.001363	–	1.365
283.15 K, 100 kPa, x1 = 0.001909	–	1.377
288.15 K, 100 kPa, x1 = 9.568e-05	–	1.146
288.15 K, 100 kPa, x1 = 0.000202	–	1.149
288.15 K, 100 kPa, x1 = 0.0003808	–	1.155
288.15 K, 100 kPa, x1 = 0.0005628	–	1.161
288.15 K, 100 kPa, x1 = 0.0007322	–	1.168
288.15 K, 100 kPa, x1 = 0.0009239	–	1.178
288.15 K, 100 kPa, x1 = 0.001099	–	1.18
288.15 K, 100 kPa, x1 = 0.001363	–	1.189
288.15 K, 100 kPa, x1 = 0.001909	–	1.198
293.15 K, 100 kPa, x1 = 0.0003808	–	1.017
293.15 K, 100 kPa, x1 = 0.0005628	–	1.021
293.15 K, 100 kPa, x1 = 0.0007322	–	1.027
293.15 K, 100 kPa, x1 = 0.0009239	–	1.033
293.15 K, 100 kPa, x1 = 0.001099	–	1.036
293.15 K, 100 kPa, x1 = 0.001363	–	1.044
293.15 K, 100 kPa, x1 = 0.001909	–	1.053
293.15 K, 101 kPa, x2 = 0.4982	–	240
293.15 K, 101 kPa, x2 = 0.9502	–	2.57
298.15 K, 100 kPa, x1 = 0.000202	–	0.9
298.15 K, 100 kPa, x1 = 0.0003808	–	0.904
298.15 K, 100 kPa, x1 = 0.0005628	–	0.908
298.15 K, 100 kPa, x1 = 0.0007322	–	0.913
298.15 K, 100 kPa, x1 = 0.0009239	–	0.918
298.15 K, 100 kPa, x1 = 0.001099	–	0.922
298.15 K, 100 kPa, x1 = 0.001363	–	0.928
298.15 K, 100 kPa, x1 = 0.001909	–	0.936
298.15 K, 101 kPa, x1 = 0.009814	3.03	–
298.15 K, 101 kPa, x2 = 0.8034	3.08	12.6
298.15 K, 101 kPa, x2 = 0.9259	6.29	–
298.15 K, 101 kPa, x2 = 0.9476	6.24	–
298.15 K, 101 kPa, x2 = 0.9647	5.76	–
298.15 K, 101 kPa, x2 = 0.9787	4.73	–
298.15 K, 101.3 kPa, x1 = 8.71e-06	0.00583	–
298.15 K, 101.3 kPa, x1 = 1.208e-05	0.00794	–
298.15 K, 101.3 kPa, x1 = 1.485e-05	0.00965	–
298.15 K, 101.3 kPa, x1 = 1.707e-05	0.01101	–
298.15 K, 101.3 kPa, x1 = 1.937e-05	0.01241	–
298.15 K, 101.3 kPa, x1 = 2.164e-05	0.0138	–
298.15 K, 101.3 kPa, x1 = 2.397e-05	0.0152	–
298.15 K, 101.3 kPa, x1 = 2.6e-05	0.0164	–
298.15 K, 101.3 kPa, x1 = 2.824e-05	0.0177	–
298.15 K, 101.3 kPa, x1 = 3.029e-05	0.019	–
298.15 K, 101.3 kPa, x1 = 0.0009038	–	0.911
298.15 K, 101.3 kPa, x1 = 0.000929	–	0.908
298.15 K, 101.3 kPa, x1 = 0.001008	–	0.919
298.15 K, 101.3 kPa, x1 = 0.001815	–	0.928
298.15 K, 101.3 kPa, x1 = 0.00182	–	0.935
298.15 K, 101.3 kPa, x1 = 0.001824	–	0.928
298.15 K, 101.3 kPa, x1 = 0.003602	–	0.971
303.15 K, 100 kPa, x1 = 9.568e-05	–	0.803
303.15 K, 100 kPa, x1 = 0.000202	–	0.806
303.15 K, 100 kPa, x1 = 0.0003808	–	0.81
303.15 K, 100 kPa, x1 = 0.0005628	–	0.813
303.15 K, 100 kPa, x1 = 0.0007322	–	0.817
303.15 K, 100 kPa, x1 = 0.0009239	–	0.82
303.15 K, 100 kPa, x1 = 0.001099	–	0.823
303.15 K, 100 kPa, x1 = 0.001363	–	0.828
303.15 K, 100 kPa, x1 = 0.001909	–	0.837
303.15 K, 101 kPa, x2 = 0.8999	–	3.82
308.15 K, 100 kPa, x1 = 9.568e-05	–	0.725
308.15 K, 100 kPa, x1 = 0.000202	–	0.727
308.15 K, 100 kPa, x1 = 0.0003808	–	0.73
308.15 K, 100 kPa, x1 = 0.0005628	–	0.733
308.15 K, 100 kPa, x1 = 0.0007322	–	0.737
308.15 K, 100 kPa, x1 = 0.0009239	–	0.74
308.15 K, 100 kPa, x1 = 0.001099	–	0.742
308.15 K, 100 kPa, x1 = 0.001363	–	0.746
308.15 K, 100 kPa, x1 = 0.001909	–	0.754
308.15 K, 101 kPa, x2 = 0.4982	–	92
308.15 K, 101.3 kPa, x1 = 0.0009038	–	0.737
308.15 K, 101.3 kPa, x1 = 0.00092	–	0.733
308.15 K, 101.3 kPa, x1 = 0.000929	–	0.733
308.15 K, 101.3 kPa, x1 = 0.001008	–	0.74
308.15 K, 101.3 kPa, x1 = 0.001815	–	0.748
308.15 K, 101.3 kPa, x1 = 0.00182	–	0.754
308.15 K, 101.3 kPa, x1 = 0.001822	–	0.751
308.15 K, 101.3 kPa, x1 = 0.001824	–	0.747
310.15 K, 101.3 kPa, x1 = 0.0009038	–	0.71
310.15 K, 101.3 kPa, x1 = 0.00092	–	0.705
310.15 K, 101.3 kPa, x1 = 0.000929	–	0.704
310.15 K, 101.3 kPa, x1 = 0.001008	–	0.712
310.15 K, 101.3 kPa, x1 = 0.001815	–	0.722
310.15 K, 101.3 kPa, x1 = 0.00182	–	0.728
310.15 K, 101.3 kPa, x1 = 0.001822	–	0.722
310.15 K, 101.3 kPa, x1 = 0.001824	–	0.717
313.15 K, 100 kPa, x1 = 9.568e-05	–	0.658
313.15 K, 100 kPa, x1 = 0.000202	–	0.66
313.15 K, 100 kPa, x1 = 0.0003808	–	0.663
313.15 K, 100 kPa, x1 = 0.0005628	–	0.665
313.15 K, 100 kPa, x1 = 0.0007322	–	0.668
313.15 K, 100 kPa, x1 = 0.0009239	–	0.671
313.15 K, 100 kPa, x1 = 0.001099	–	0.673
313.15 K, 100 kPa, x1 = 0.001363	–	0.677
313.15 K, 100 kPa, x1 = 0.001909	–	0.686
318.15 K, 101.3 kPa, x1 = 0.0009038	–	0.613
318.15 K, 101.3 kPa, x1 = 0.00092	–	0.608
318.15 K, 101.3 kPa, x1 = 0.000929	–	0.607
318.15 K, 101.3 kPa, x1 = 0.001008	–	0.615
318.15 K, 101.3 kPa, x1 = 0.001815	–	0.624
318.15 K, 101.3 kPa, x1 = 0.00182	–	0.625
318.15 K, 101.3 kPa, x1 = 0.001822	–	0.623
318.15 K, 101.3 kPa, x1 = 0.001824	–	0.618

COC[n+]1ccn(C)c1.O=S(=O)([N-]S(=O)(=O)C(F)(F)F)C(F)(F)F + O
Conditions	viscosity [mPa·s]
283 K, 101 kPa, x1 = 0.8283	80.4
